Test results taken from publication PMC11719397, “Monophthalates of betulinic acid and related pentacyclic triterpenes inhibit efficiently the SOS-mediated nucleotide exchange and impact PI3K/AKT signaling in oncogenic K-RAS4B proteins” (RSC Advances, 2025).
≈ marks a conversion by molar mass, not a printed value. Read-outs that look alike come from different tables or passages of the source.

Experiments:
K-RAS4B^G12D [1] = biological target: T1, K-RAS4B^G12D (Homo sapiens, UniProt P01116, G12D); assay: biochemical; conditions: for IC50: K-RAS4B GDP/GTP exchange, eight data points, at least three determinations
K-RAS4B G12V = K-RAS4B G12V (Homo sapiens, UniProt P01116, G12V); assay: Nucleotide exchange assay (SOS1-mediated GDP/GTP exchange, GDP-Glo), K-RAS4B G12V; assay type: biochemical; conditions: eight data points, at least three determinations, (*) single determination
K-RAS4B wild-type = K-RAS4B wild-type (Homo sapiens, UniProt P01116); assay: Nucleotide exchange assay (SOS1-mediated GDP/GTP exchange, GDP-Glo), K-RAS4B wild-type; assay type: biochemical; conditions: K-RAS4B GDP/GTP exchange; eight data points, at least three determinations; (*) single determination
[2] = biological target: (GTP)K-RAS4B^wt:SOS1 complex (Homo sapiens, UniProt P01116+Q07889); assay: HTRF K-RAS^wt:SOS protein-protein interaction assay
Method: The interaction of (GTP)K-RAS4B^wt and SOS was measured with a HTRF assay using an SOS-specific antibody labeled with terbium cryptate as HTRF (homogeneous time-resolved fluorescence) donor and a K-RAS4B^wt specific antibody labeled with an HTRF acceptor (XL665).[52]
To test the compounds effect on the interaction of K-RAS and SOS1 proteins a commercial assay from Revvity (product code 64[sequence]) was used. The K-RAS WT/SOS1 PPI assay includes tagged human recombinant partners (K-RAS WT and SOS1) and labelled anti-tag reagents for HTRF detection. Without an inhibitor, K-RAS WT loaded with GTP binds to SOS1, and the binding of each detection reagent to its tagged target generates an HTRF signal. In the presence of K-RAS WT/SOS1 inhibitors or GTP competitors, the HTRF signal decreases.
After an incubation step for 10 min at room temperature 3 μL Tag1-KRAS protein was added followed by 7.5 μL detection mix containing anti-Tag2 antibody labeled with Terbium cryptate and anti-Tag1 antibody labeled with XL665. […] IC50 values were determined from the sigmoidal dose response curves with the Scigilian Analyze software (Scigilian, Monteral, Canada).

K-RAS4B^G12D [3] = biological target: T1, K-RAS4B^G12D; assay: cell-based; parameters: a fusion protein of LgBiT and full-length RAS; a fusion protein of SmBiT(q) and full-length RAS in cells; expressed in transfected cells; host or cells: HEK239T (so in the source); conditions: live cells; displacement of BI2852 from the K-Ras4B SI/II binding-site; read-out: K-RAS4B^G12D NanoBRET TE KD
Excerpt: To obtain further information on the mode of action, selected GDP/GTP exchange inhibitors were studied in additional assays (Table 3). A target engagement assay, which is based on bioluminescence resonance energy transfer (BRET), was used to measure target engagement at protein complexes in live cells (Fig. 5a). The BRET effect results from an energy transfer between the target luciferase fusion protein and a cell-permeable fluorescent tracer in intact cells.
Fig. 5 Schematic illustrations of the RAS cellular target engagement and RAS:SOS protein–protein interaction assay. (a) NanoBRET target engagement (TE) assay: when the fusion proteins LgBiT-RAS and SmBiT(q)-RAS interact in live-cells, they form an active luciferase as a BRET donor. The BRET receptor is a fluorescent NanoBRET® tracer that binds specifically to K-RAS. K-RAS binders displace the tracer and reduce the BRET signal in a dose-dependent manner.
The NanoBRET® TE Intracellular RAS Assay uses NanoBiT® Technology, a structural complementation system comprised of a large luciferase subunit (LgBiT) and a small complementary peptide (SmBiT(q)). Specifically, a fusion protein of LgBiT and full-length RAS is co-expressed with a fusion protein of SmBiT(q) and full-length RAS in cells. When the RAS proteins interact and form multimers, the LgBiT and SmBiT(q) subunits come together to form an active luciferase enzyme that serves as the BRET donor. The energy acceptor is a cell-permeable fluorescent NanoBRET® tracer that binds specifically to RAS. […] After mixing the plate for 1 min and incubation at room temperature for 15 min 1 μL of NanoBRET TE RAS Tracer 01 (final concentration 1 μM) was added followed by another mixing step. After 2 h incubation (37 °C, 5% CO2) and 15 min at room temperature 5 μL of NanoBRET™ Nano-Glo® substrate was added followed by a mixing step.

[4] = K-RAS4B form mostly not given, inactive = IC50 > 100 μM (Fig. 3 legend)

IC50 (K-RAS4B^G12D [1])	IC50 (K-RAS4B G12V)	IC50 (K-RAS4B wild-type)	solubility (Solubility)	Structure (SMILES)	inhibition of GDP/GTP exchange (in words) (K-RAS4B^G12D [1]; [4])	also measured
> 300 µM	–	–	–	C[C@H]1[C@H](C)CC[C@]2(C(=O)O)CC[C@]3(C)C(=CC[C@@H]4[C@@]5(C)CC[C@H](O)C(C)(C)[C@@H]5CC[C@]43C)[C@H]12 [Compound 4, Ursolic acid]	–	–
2.64 ± 1.75 µM	2.52 ± 0.99 µM	3.46 ± 1.94 µM	424 µM (≈ 272 µg/mL)	C[C@H]1[C@H](C)CC[C@]2(C(=O)O)CC[C@]3(C)C(=CC[C@@H]4[C@@]5(C)CC[C@H](OC(=O)c6c(F)ccc(F)c6C(=O)O)C(C)(C)[C@@H]5CC[C@]43C)[C@H]12 [Compound 36]	–	Kd [2]: > 50 µM; Kd (K-RAS4B^G12D [3]): > 50 µM
7.61 ± 0.7 µM	5.47 µM	4.68 µM	–	CC1(C)CC[C@]2(C(=O)NO)CC[C@]3(C)C(=CC[C@@H]4[C@@]5(C)CC[C@H](OC(=O)c6cc(F)c(F)cc6C(=O)O)C(C)(C)[C@@H]5CC[C@]43C)[C@@H]2C1 [Compound 41]	–	–
–	–	–	–	C=C(C)[C@@H]1CC[C@]2(C(=O)NCC(=O)OCC)CC[C@]3(C)[C@H](CC[C@@H]4[C@@]5(C)CC[C@H](O)C(C)(C)[C@@H]5CC[C@]43C)[C@@H]12 [Compound 21]	–	inhibition of GDP/GTP exchange (in words) (K-RAS4B^G12D [1]): inactive
3.06 ± 0.79 µM	5.62 ± 0.93 µM	1.52 ± 0.5 µM	390 µM (≈ 238 µg/mL)	CC1(C)CC[C@]2(C(=O)O)CC[C@]3(C)C(=CC[C@@H]4[C@@]5(C)CC[C@H](OC(=O)c6sccc6C(=O)O)C(C)(C)[C@@H]5CC[C@]43C)[C@@H]2C1 [Compound 45]	–	–
27.1 ± 4.2 µM	8.7 ± 0.59 µM	10.6 ± 2.9 µM	320 µM (≈ 210 µg/mL)	CC1(C)CCC23CCC4(C)C5(C)CCC6C(C)(C)C(OC(=O)c7c(F)ccc(F)c7C(=O)O)CCC6(C)C5CC(O)C4(OC2=O)C3C1 (centres unmarked) [Compound 52]	–	–
–	–	–	–	C=C(C)[C@@H]1CC[C@]2(C(=O)O)CC[C@]3(C)[C@H](CC[C@@H]4[C@@]5(C)CCC(=O)C(C)(C)[C@@H]5CC[C@]43C)[C@@H]12 [Compound 20, betulonic acid]	inactive	–
–	–	–	322 µM (≈ 193 µg/mL)	C#Cc1c(F)ccc2cc(O)cc(-c3ncc4c(N5CC6CCC(C5)N6)nc(OC[C@@]56CCCN5C[C@H](F)C6)nc4c3F)c12 [Compound 53, MRTX1133, reference compound]	–	–
13.7 ± 5.1 µM	10.9 ± 0.6 µM	13.4 ± 2.1 µM	114 µM (≈ 58.9 µg/mL)	Cn1cnc(Cn2ccc3ccc(CNCc4[nH]c5ccccc5c4C4NC(=O)c5ccc(O)cc54)cc32)c1 (centres unmarked) [Compound 54, BI2852, reference compound]	–	–
27.8 ± 2.6 µM	9.18 ± 0.99 µM	12.8 ± 2.9 µM	–	CC1(C)CC[C@]2(C(=O)Nc3nnn[nH]3)CC[C@]3(C)C(=CC[C@@H]4[C@@]5(C)CC[C@H](O)C(C)(C)[C@@H]5CC[C@]43C)[C@@H]2C1 [Compound 39]	–	–
2.88 ± 0.89 µM	2.51 ± 0.24 µM	1.33 ± 0.24 µM	424 µM (≈ 272 µg/mL)	CC1(C)CC[C@]2(C(=O)O)CC[C@]3(C)C(=CC[C@@H]4[C@@]5(C)CC[C@H](OC(=O)c6c(F)ccc(F)c6C(=O)O)C(C)(C)[C@@H]5CC[C@]43C)[C@@H]2C1 [Compound 44]	–	–
–	–	–	–	C=C(C)[C@@H]1CC[C@]2(C(=O)On3nnc4cccnc43)CC[C@]3(C)[C@H](CC[C@@H]4[C@@]5(C)CC[C@H](O)C(C)(C)[C@@H]5CC[C@]43C)[C@@H]12 [Compound 13]	inactive	–
> 300 µM	–	–	–	C=C(C)[C@@H]1CC[C@]2(C(=O)O)CC[C@]3(C)[C@H](CC[C@@H]4[C@@]5(C)CC[C@H](O)C(C)(C)[C@@H]5CC[C@]43C)[C@@H]12 [Compound 2, betulinic acid]	–	–
13.8 ± 4.2 µM	–	–	–	COC(=O)[C@]12CC[C@@H](C(C)C(=O)O)[C@@H]1[C@H]1CC[C@@H]3[C@@]4(C)CC[C@H](OC(C)=O)C(C)(C)[C@@H]4CC[C@@]3(C)[C@]1(C)CC2 (some centres unmarked) [Compound 27]	–	–
–	–	–	–	C=C(C)[C@@H]1CC[C@]2(C(=O)NCC(=O)O)CC[C@]3(C)[C@H](CC[C@@H]4[C@@]5(C)CC[C@H](O)C(C)(C)[C@@H]5CC[C@]43C)[C@@H]12 [Compound 12]	inactive	–
–	–	–	–	CC1(C)CC[C@]2(C(=O)O)CC[C@]3(C)C(=CC[C@@H]4[C@@]5(C)CC[C@H](OC(=O)c6cc(F)c(F)cc6C(=O)NO)C(C)(C)[C@@H]5CC[C@]43C)[C@@H]2C1 [Compound 42, oleanoyl 4,5-difluoro-2-(hydroxycarbamoyl)benzo-ate]	completely inactive	–
–	–	–	–	C=C(C)[C@@H]1CC[C@]2(C(=O)OC)CC[C@]3(C)[C@H](CC[C@@H]4[C@@]5(C)CC[C@H](O)C(C)(C)[C@@H]5CC[C@]43C)[C@@H]12 [Compound 10]	inactive	–
–	–	–	–	C=C(C)[C@@H]1CC[C@]2(C(=O)O)CC[C@]3(C)[C@H](CC[C@@H]4[C@@]5(C)CC[C@H](OC(C)=O)C(C)(C)[C@@H]5CC[C@]43C)[C@@H]12 [Compound 8]	inactive	–
–	–	–	–	C=C(C)[C@@H]1CC[C@]2(CN)CC[C@]3(C)[C@H](CC[C@@H]4[C@@]5(C)CC[C@H](O)C(C)(C)[C@@H]5CC[C@]43C)[C@@H]12 [Compound 35]	–	inhibition of GDP/GTP exchange (in words) (K-RAS4B^G12D [1]): inactive
55.6 ± 6.5 µM	–	53.6 ± 7.3 µM	383 µM (≈ 255 µg/mL)	COc1cc(C(=O)O)c(C(=O)O[C@H]2CC[C@]3(C)[C@H]4CC=C5[C@@H]6[C@@H](C)[C@H](C)CC[C@]6(C(=O)O)CC[C@@]5(C)[C@]4(C)CC[C@H]3C2(C)C)cc1OC [Compound 38]	–	–
–	–	–	–	C=C(C)[C@@H]1CC[C@]2(C(=O)O)CC[C@]3(C)[C@H](CC[C@@H]4[C@@]5(C)CC[C@H](OC(=O)c6ccccc6)C(C)(C)[C@@H]5CC[C@]43C)[C@@H]12 [Compound 9]	inactive	–
10.4 ± 0.8 µM	12.7 ± 5.5 µM	25.6 ± 4.3 µM	–	C=C(C)[C@@H]1CC[C@]2(COC(=O)CCC(=O)O)CC[C@]3(C)[C@H](CC[C@@H]4[C@@]5(C)CC[C@H](O)C(C)(C)[C@@H]5CC[C@]43C)[C@@H]12 [Compound 31]	–	–
–	–	–	–	C=C(C)[C@@H]1CC[C@]2(C(=O)O)CC[C@]3(C)[C@H](CC[C@@H]4[C@@]5(C)CC[C@H](OC(=O)c6cc7ccccc7cc6C(=O)O)C(C)(C)[C@@H]5CC[C@]43C)[C@@H]12 [Compound 22]	–	inhibition of GDP/GTP exchange (in words) (K-RAS4B^G12D [1]): loss of GDP/GTP exchange inhibition
3.67 ± 0.35 µM	8.12 ± 1.24 µM	4.15 ± 1.32 µM	421 µM (≈ 257 µg/mL)	CC1(C)CC[C@]2(C(=O)O)CC[C@]3(C)C(=CC[C@@H]4[C@@]5(C)CC[C@H](OC(=O)c6ccsc6C(=O)O)C(C)(C)[C@@H]5CC[C@]43C)[C@@H]2C1 [Compound 46]	–	–
–	–	–	–	COC(=O)c1ccccc1C(=O)O[C@H]1CC[C@]2(C)[C@H]3CC=C4[C@@H]5CC(C)(C)CC[C@]5(C(=O)O)CC[C@@]4(C)[C@]3(C)CC[C@H]2C1(C)C [Compound 48]	completely inactive	–
2.22 ± 0.29 µM	2.71 ± 0.39 µM	1.5 ± 0.08 µM	394 µM (≈ 252 µg/mL)	CC1(C)CC[C@]2(C(=O)O)CC[C@]3(C)C(=CC[C@@H]4[C@@]5(C)CC[C@H](OC(=O)c6cc(F)c(F)cc6C(=O)O)C(C)(C)[C@@H]5CC[C@]43C)[C@@H]2C1 [Compound 43]	–	–
26.5 ± 5.9 µM	8.57 ± 1.09 µM	7.18 ± 0.68 µM	99 µM (≈ 65 µg/mL)	CC1(C)CCC23CCC4(C)C5(C)CCC6C(C)(C)C(OC(=O)c7cc(F)c(F)cc7C(=O)O)CCC6(C)C5CC(O)C4(OC2=O)C3C1 (centres unmarked) [Compound 51]	–	–
–	–	–	–	C=C(C)[C@@H]1CC[C@]2(C(=O)NCCN)CC[C@]3(C)[C@H](CC[C@@H]4[C@@]5(C)CC[C@H](O)C(C)(C)[C@@H]5CC[C@]43C)[C@@H]12 [Compound 17]	inactive	–
–	–	–	–	CC1(C)CC[C@]2(C(=O)NCCN)CC[C@]3(C)C(=CC[C@@H]4[C@@]5(C)CC[C@H](O)C(C)(C)[C@@H]5CC[C@]43C)[C@@H]2C1 [Compound 40]	inactive	–

Structure (SMILES)	IC50 (K-RAS4B^G12D [1])	IC50 (K-RAS4B G12V)	IC50 (K-RAS4B wild-type)	solubility (Solubility)	inhibition of GDP/GTP exchange (in words) (K-RAS4B^G12D [1]; [4])	also measured
CC(C=O)[C@@H]1CC[C@]2(C(=O)O)CC[C@]3(C)[C@H](CC[C@@H]4[C@@]5(C)CC[C@H](OC(=O)c6ccccc6C(=O)O)C(C)(C)[C@@H]5CC[C@]43C)[C@@H]12 (some centres unmarked) [Compound 14]	48.5 ± 12.7 µM	51.1 ± 6.2 µM	37.3 ± 19.1 µM	447 µM (≈ 278 µg/mL)	–	solubility (in words) (Solubility): well soluble
